Values quoted from earlier work as cited in patent publication US20160128986A1, “METHODS AND COMPOSITIONS RELATED TO THE USE OF LOW HLB SURFACTANTS IN THE PRODUCTION OF SYNTHETIC NANOCARRIERS COMPRISING A RAPALOG” (Selecta Biosciences, Inc., priority 2014, published 2016).

Conditions: publicly available information

| HLB of Surfactant | Compound |
| --- | --- |
| 12 | CCCCCCCCO[C@@H]1O[C@H](CO)[C@@H](O)[C@H](O)[C@H]1O [octyl β-D-glucopyranoside, Octyl β-D-glucopyranoside] |
| 5 | Polyethylene glycol hexadecyl ether [Brij 52] |
| 4 | Polyethylene glycol oleyl ether [Brij 93] |
| 15 | Polysorbate 80 |
| 4.3 | Sorbitan monooleate [SPAN 80] |
| 6.7 | Sorbitan monopalmitate [SPAN 40] |

| Compound | HLB of Surfactant |
| --- | --- |
| CCCCCCCCCCCCCCCC(=O)O [Palmitic Acid] | 3.2 |
| Sorbitan monolaurate [SPAN 20] | 8.6 |
| Sorbitan stearate [SPAN 60] | 4.7 |
